Residues, ends and D or L forms follow the SMILES beside them.
Tests used:
[1] = system: MDA-MB-231 subcutaneous tumors; assay: Tumor growth in mice bearing subcutaneous MDA-MB-231 tumors, nanoparticle treatment; type: in vivo
Description: Referring to FIG. 2A, the graph summarizes the results with FOL-NPs that were empty, contained Doxorubicin (DOX), or CT20, and are compared to COOH-NPs with CT20. Referring to FIG. 2B, representative ultrasound data is shown from mice treated with PBS or FOL-CT20-NPs. Arrows indicate treatment times. *p<0.05.
To test the ability of CT20 to inhibit tumor growth, HBPE-NPs were modified with folate (FOL) to target the folate receptor (FR) (Boohaker, R. J., et al. (2012) Mol. Pharm. 7, 2080-2093; Lee, M. W., et al. (2014) Cell Death Dis. 5). FR targeting enabled concentration of the HBPE-NPs in murine tumors during systemic delivery. FIG. 2 is a representative animal experiment in which MDA-MB-231 cells were used to form subcutaneous tumors. Mice (n=5) were treated with two subcutaneous injections of nanoparticles (2 mg/kg/dose) over a five week period. […] Referring to FIG. 2B, representative ultrasound data is shown from mice treated with PBS or FOL-CT20-NPs. Arrows indicate treatment times. *p<0.05.

MDA-MB-231 cells [2] = assay: Timeline of biological effects of CT20 in HBPE-NPs in breast cancer cells; type: cell-based, human; conditions: CT20 (˜3.4 nM) in HBPE-NPs
Protocol: CT20 peptide impaired mitochondrial movement (mitotracker green) (A) leading to clustering (JC-1 probe) (B) and reduced F-actin (green) polymerization (nucleus, DAPI, blue (C). Referring to FIG. 3D, the viability of cells was determined by measuring membrane permeability (Sytox) and membrane asymmetry (violet ratiometric dye). Gates are: N, necrotic; V, viable; A, apoptotic. Percentages are V (black) and N+A (red). Referring to FIG. 3E, by 6 hours, cells detach from substrate (fibronectin). Referring to FIG. 3F, membrane levels of β1 integrin decrease. Referring to FIG. 3G-3I, post-cell detachment events include caspase activation, autophagy, and increased ROS production. Referring to FIG. 3J, apoptosis/anoikis was detected between 24-48 hours as described for 3D.
This triggered hyperpolarization of the mitochondrial membrane and fusion-like aggregation (FIG. 3B) that impaired mitochondrial redistribution, ATP production, and F-actin polymerization (FIG. 3C). Cells remained viable during these “initiating events” (FIG. 3D). However, at 6 hours post-CT20 treatment, cells began detaching from the substrate (fibronectin) (FIG. 3E). This was preceded by decreased expression of integrins (β1 integrin is shown; FIG. 3F). By 24 hours post-CT20 treatment, “effector events” caused by peptide-induced detachment were detected, including the activation of caspases (FIG. 3G), the induction of autophagy (FIG. 3H), and increased ROS production (FIG. 3I). Cell death (anoikis), indicated by membrane asymmetry, was detected in cancer cells by 48 hours (FIG. 3J).

MDA-MB-231 cells [3] = assay: Migration assay (Oris exclusion zone); type: cell-based, human; conditions: 24 hours treatment, 10 hours migration
Protocol: Migration assay: The Oris cell migration assembly kit (Platypus Technologies) was used. Cells were stained with CellTrace Violet (Life Technologies) according to manufacturer's protocol. Stoppers were placed in wells of a 96-well plate before cells were seeded at a density of 30,000 cells per well. For experiments involving CT20p treatment, treatments with CT20p were began 18 hours following seeding and allowed to continue for 24 hours. Treatments were done in quadruplicate. At the end of the treatment period, stoppers were removed to create an exclusion zone that the cells would migrate into. MDA-MB-231 cells were allowed to migrate for 10 hours. MCF-10A and MCF-10A EMT cells were allowed to migrate for 20 hours. Following the migration period, fluorescent images were obtained using a Plate Runner HD (Trophos). […] Images were analyzed by ImageJ software (NIH) by using the wand tool to automatically define and measure the migration zone. % closure was calculated as [(pre migration area−migration area)/pre migration area]×100.
Observations on the effects of CT20p on breast cancer cells include loss of actin distribution throughout the cell, especially in the filapodia (FIG. 3C). […] Immediately following removal of the stoppers, the pre-migration area can be determined. […] After quantification of the areas as described in Materials & Methods, % closure was calculated for each condition (FIG. 11B). […]

[4] = system: cells isolated from primary breast tumors; assay: Lethality in cells isolated from primary breast tumors; type: cell-based, human; conditions: CT20 peptide in HBPE-NPs
Description: (§1) 40× magnification. CCTβ was detected in invasive breast cancer.
(§2) The lethality of CT20 was also examined in cells isolated from primary breast tumors and paired normal tissue. […] To this end, the levels of CCTβ were examined in a pilot tissue array of breast cancer tissue cores by immunohistochemistry (IHC) and detected CCTβ in invasive breast cancer (FIG. 14B).

[5] = system: cells isolated from paired normal tissue; assay: Lethality in cells isolated from paired normal tissue; type: cell-based, human; conditions: CT20 peptide in HBPE-NPs
Description: as §1, §2

CC[C@H](C)[C@H](NC(=O)[C@@H](NC(=O)[C@H](CC(C)C)NC(=O)[C@H](CO)NC(=O)[C@H](C)NC(=O)[C@@H](NC(=O)[C@H](CC(C)C)NC(=O)[C@@H](NC(=O)CNC(=O)[C@H](C)NC(=O)[C@@H](NC(=O)[C@H](Cc1ccccc1)NC(=O)[C@@H](NC(=O)[C@@H](NC(=O)[C@@H](NC(C)=O)C(C)C)[C@@H](C)O)[C@@H](C)CC)C(C)C)C(C)C)[C@@H](C)O)[C@@H](C)O)C(=O)N[C@@H](Cc1c[nH]c2ccccc12)C(=O)N[C@@H](CCCCN)C(=O)N[C@@H](CCCCN)C(=O)N[C@@H](CCSC)C(=O)NCC(N)=O [CT20] (Ac-VTIFVAGVLTASLTIWKKMG-NH2)
Effectiveness compared with Doxorubicin ([1]; CT20 delivered in HBPE-NPs): as effective, if not more, than drugs such as Doxorubicin | Inhibition of tumor growth ([1]; two subcutaneous injections of nanoparticles (2 mg/kg/dose) over five weeks): caused tumor regression | Movement of mitochondria compared to controls (MDA-MB-231 cells [2]): decreased four-fold | Time by which cell death (anoikis, membrane asymmetry) was detected (MDA-MB-231 cells [2]): ≤ 48 h | Time at which cells began detaching from the substrate (fibronectin) (MDA-MB-231 cells [2]; post-CT20 treatment): 6 h | Time by which effector events (caspase activation, autophagy, increased ROS) were detected (MDA-MB-231 cells [2]; post-CT20 treatment): ≤ 24 h | Effect on migration (% closure of exclusion zone) (MDA-MB-231 cells [3]; 75 μg/mL): significantly impaired movement | Effect on migration (% closure of exclusion zone) (MDA-MB-231 cells [3]; 150 μg/mL): nearly eliminated | Lethality [4]: killed the tumor cells | Lethality [5]: not the normal cells

Source: patent US12178840B2, “Method and compositions comprising a CT20 peptide” (UNIVERSITY OF CENTRAL FLORIDA RESEARCH FOUNDATION, INC., priority 2014, dated 2024)
